Laboratory results as given in ChEMBL document CHEMBL1128095, “3,4-diarylthiophenes are selective COX-2 inhibitors” (Bioorg Med Chem Lett, 1995).

Tests used:
[1] = molecular target: T1, Prostaglandin G/H synthase 2 (Homo sapiens, UniProt P35354)
T1 sequence (P35354 whole entry): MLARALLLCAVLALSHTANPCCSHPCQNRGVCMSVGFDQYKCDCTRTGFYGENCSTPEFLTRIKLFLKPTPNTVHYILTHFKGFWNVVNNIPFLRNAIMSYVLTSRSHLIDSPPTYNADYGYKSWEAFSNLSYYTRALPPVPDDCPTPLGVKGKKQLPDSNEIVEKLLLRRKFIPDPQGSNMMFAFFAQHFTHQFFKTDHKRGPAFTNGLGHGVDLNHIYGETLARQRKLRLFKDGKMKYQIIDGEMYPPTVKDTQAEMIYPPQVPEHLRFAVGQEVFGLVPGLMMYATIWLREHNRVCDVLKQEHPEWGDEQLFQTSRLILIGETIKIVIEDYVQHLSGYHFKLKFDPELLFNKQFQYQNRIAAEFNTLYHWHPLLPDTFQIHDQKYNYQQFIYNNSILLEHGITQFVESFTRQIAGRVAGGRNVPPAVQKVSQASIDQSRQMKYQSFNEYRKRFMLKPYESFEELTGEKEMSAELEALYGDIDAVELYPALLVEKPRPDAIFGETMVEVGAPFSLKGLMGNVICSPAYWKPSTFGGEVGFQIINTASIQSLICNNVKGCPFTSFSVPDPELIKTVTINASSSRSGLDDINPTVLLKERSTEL
Description: Inhibitory activity against human recombinant Prostaglandin G/H synthase 2

[2] = molecular target: Prostaglandin G/H synthase 1 (Homo sapiens, UniProt P23219); assay: Inhibitory activity against human recombinant Prostaglandin G/H synthase 1
[3] = system: Rattus norvegicus; assay: Compound was tested for its ability to inhibit carrageenan rat foot edema at 10 mg/kg dose; type: functional

Chain of Prostaglandin G/H synthase 1 (P23219 whole entry): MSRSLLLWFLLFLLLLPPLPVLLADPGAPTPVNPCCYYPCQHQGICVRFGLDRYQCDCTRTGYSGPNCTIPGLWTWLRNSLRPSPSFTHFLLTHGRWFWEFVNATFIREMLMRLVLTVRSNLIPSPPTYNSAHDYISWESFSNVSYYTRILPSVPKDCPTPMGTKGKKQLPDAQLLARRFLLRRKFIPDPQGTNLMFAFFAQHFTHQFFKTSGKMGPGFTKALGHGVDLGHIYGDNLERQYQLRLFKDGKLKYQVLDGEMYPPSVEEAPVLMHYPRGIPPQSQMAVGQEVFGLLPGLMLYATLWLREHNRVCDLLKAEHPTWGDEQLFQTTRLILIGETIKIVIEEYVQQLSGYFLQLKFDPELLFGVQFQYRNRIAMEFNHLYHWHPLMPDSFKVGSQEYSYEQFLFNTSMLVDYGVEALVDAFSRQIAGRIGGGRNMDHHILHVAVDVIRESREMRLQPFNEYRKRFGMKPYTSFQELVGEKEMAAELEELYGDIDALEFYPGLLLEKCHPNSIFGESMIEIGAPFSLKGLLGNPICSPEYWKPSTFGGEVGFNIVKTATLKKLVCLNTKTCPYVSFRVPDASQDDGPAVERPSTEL

Row | SMILES | IC50 [1] [µM] | IC50 [2] [µM] | inhibition in vivo at 10 mg/kg [3] [%]
1 | CS(=O)(=O)c1ccc(-c2c(Br)sc(Br)c2-c2ccc(F)cc2)cc1 | 0.7 | > 1000 | 
2 | CS(=O)(=O)c1ccc(-c2cscc2-c2ccc(F)cc2)cc1 | 0.08 | > 1000 | 33
3 | CS(=O)(=O)c1ccc(-c2c(-c3ccc(F)cc3)csc2Br)cc1 | > 100 | > 100 | 
4 | COc1ccc(-c2cscc2-c2ccc(S(C)(=O)=O)cc2)cc1F | 0.03 | > 100 | 
5 | COc1ccc(-c2cscc2-c2ccc(S(N)(=O)=O)cc2)cc1F | 0.009 | 10 | 
6 | CS(=O)(=O)c1ccc(-c2cc(Br)sc2-c2ccc(F)cc2)cc1 [DUP-697] |  |  | 57
7 | NS(=O)(=O)c1ccc(-c2cscc2-c2ccc(F)cc2)cc1 | 0.008 | 1.8 | 46.5
8 | COc1ccc(-c2cscc2-c2ccc(S(C)(=O)=O)cc2)cc1 | 0.05 | 0.9 | 
9 | CS(=O)(=O)c1ccc(-c2csc(Br)c2-c2ccc(F)cc2)cc1 |  | 5.2 | 30
